Laboratory results as given in US9180132B2, “Antimicrobial cationic steroids and methods of use” (The Trustees of the University of Pennsylvania, priority 2010, dated 2015).

Key:
GFP-GR = GFP-GR translocation study in BAECs; assay type: cell-based; conditions: 0.01-1 μM, 60-minute treatment
Protocol: BAECs were seeded at 1×10^5/ml in 24 well plates and allowed to spread overnight. Cells were transfected with GFP-GR chimeric protein by adding 450 ng of DNA complexed with 2 ul of lipofectamine in a 200 ul volume of Optimem media growth to each well of a 24 well plate for ˜1.5 hour. The DNA-lipofectamine complex was then removed and cells placed in DMEM supplemented with 0.5% calf serum. This reduced level of calf serum was used to prevent non-specific translocation of GFP-GR receptor in response to hormones in the serum. […] Analysis of GFP-GR translocation was conducted by counting the number of cells in each field of view, which had GFP-GR nuclear localization compared to total number of cells. ˜40 cells were analyzed per condition.

Water solubility = assay type: physicochemical
Excerpt: The 21-hydroxy group of dexamethasone is not required for anti-inflammatory activity, and therefore is an ideal choice for conjugation to a polycation (FIG. 1A) (Schimmer et al., 1996, in The Pharmacological Basis of Therapeutics, 1459-1485, eds. Hardman and Limbird, McGraw-Hill, New York). […] Traut's reagent is selectively ring-opened by the primary amines (Hermanson, 1996, Bioconjugate Techniques, Academic Press) on spermine, forming a hydrolytically sensitive amidimide bond (Hermanson, 1996, Bioconjugate Techniques, Academic Press) between spermine and iminothiolane and a reactive thiolate anion that reacts with the α-keto mesylate on the 21 position of dexamethasone mesylate (Simmons et al., 1980, J. Org. Chem. […]), yielding an α-keto thioether linkage between the dexamethasone and iminothiolane. Dexamethasone mesylate (prepared or received from Steraloids, N.H.) or dexamethasone (Steraloids, N.H.), 2-iminothiolane (Traut's reagent) (Pierce), spermine (Sigma), and ethanol or DMSO (Aldrich) were used as received. […] For DA, FIG. 1B: Calc: C, 63.26; H, 7.35; N, 2.84. Found: C, 63.44; H, 7.27; N, 2.83.

[1] = tested on: Bovine aortic endothelial cells (BAEC); experiment: Lipofection of BAEC with EGFP plasmid; assay type: cell-based; conditions: unconjugated, alone
Protocol: Bovine aortic endothelial cells (BAEC, passage 4-13) were passaged at a 1:3 split to 24-well culture plates, and then grown to dense confluence before lipofection. Growth medium was Dulbecco's modified Eagle's medium (DMEM) containing 10% heat inactivated charcoal-filtered (to remove steroid hormones) fetal calf serum (Hyclone), 0.30 mg/ml glutamine, 150 U/ml penicillin, and 0.15 mg/ml streptomycin (Gibco). […] The plasmids pEGFP-N3 and pGRE-SEAP (Clontech) were used for expression of EGFP or secreted alkaline phosphatase under the regulation of CMV or GRE promoters, respectively. […]
For lipofection, a solution of DS/DOPE in 125 μl OptiMEM I (Gibco) was mixed with a solution of DNA in 125 μl OptiMEM I, incubated for 30 to 60 minutes, and then overlaid on BAEC cells for 2 hours, followed by PBS rinse and addition of growth media. Fluorescence was measured after 48 hours. […] EGFP expression of transfections was monitored in duplicate (FIG. 2A) or triplicate (FIG. 2B) with a fluorescent plate reader (Labsystems Fluoroskan Ascent; 485 nm/538 nm filter pair) with background subtraction using the autofluorescence of non-transfected BAEC. […] Supernatant was collected, and pooled with supernatant from PBS washed and pelleted cells (total volume 750 μl), and EGFP fluorescence was measured (Ex 485, Em 515; SLM fluorometer). […]

Molecule | nuclear localization (translocation) of GFP-GR (GFP-GR) | solubility (Water solubility) | gene transfer activity (EGFP expression) [1]
CCCCCCCCNCCC[C@@H](C)[C@H]1CC[C@H]2[C@@H]3[C@H](OCCCN)C[C@@H]4C[C@H](OCCCN)CC[C@]4(C)[C@H]3C[C@H](OCCCN)[C@]12C [CSA-13] | not observed | – | –
CC1C[C@H]2[C@@H]3CCC4=CC(=O)C=C[C@]4(C)[C@@]3(F)C(O)C[C@]2(C)[C@@]1(O)C(=O)CSCCCC(=N)NCCCNCCCCNCCCN (some centres unmarked) [DS, N-[3-({4-[(3-aminopropyl)amino]butyl}amino)propyl]-4-[(9-fluoro-11,17-dihydroxy-16-methyl-3,20-dioxopregna-1,4-dien-21-yl)sulfanyl]butanimidamide] | caused nuclear localization of GFP-GR | > 100 mg/mL | –
NCCCNCCCCNCCCN [Spermine, spermine] | – | – | no detectable gene transfer activity
LL-37: cathelicidin peptide LL37, naturally occurring antibacterial agent (LLGDFFRKSKEKIGKEFKRIVQRIKDFLRNLVPRTES; Antibacterial peptide LL-37; UniProt P49913 134-170, looked up) | not observed | – | –
